Laboratory results from patent US20120115852A1, “HETEROCYCLIC COMPOUNDS AS AUTOTAXIN INHIBITORS” (Merck Patent Gesellschaft Mit Beschrankter Haftung, priority 2009, published 2012).

Biological target: T1, recombinant autotaxin (Homo sapiens, UniProt Q13822)
T1 construct: made in house; host or cells: Hi5 insect cells (baculovirus)
Assay: Autotaxin test (enzyme test), Amplex Red fluorescence with LPC substrate
Format: biochemical
Conditions: autotaxin inhibition (enzyme test); for remaining activity at 10 µM: 10 μM compound, read-out: % Control at 10 μM
Procedure, shortened: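 Activity was inferred from H2O2 made from released choline, detected as Amplex Red/peroxidase fluorescence (485 nm excitation, 612 nm emission, kinetic read). Beforehand, Hi5-expressed autotaxin sat with compound 30 min at 22° C, then hydrolysed 75 μM final LPC for 90 min at 37° C, pH 8 Tris buffer.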

| Structure (SMILES) | remaining activity at 10 µM | IC50 |
| --- | --- | --- |
| O=C1Nc2ccc(-c3ccco3)cc2C(=O)N2CCN(C(=O)C3CC3)C[C@H]12 [Compound B16] | 82% | – |
| CC(C)(CC(=O)O)CC(=O)N1CCN2C(=O)c3cc(-c4ccc(Cl)cc4)ccc3NC(=O)[C@H]2C1 [Compound B8] | 70% | – |
| O=C1Nc2ccc(-c3ccc(Cl)cc3)cc2C(=O)N2CCN(C(=O)Nc3ccccc3)CC12 (stereo not drawn) [Compound A48, N-Phenyl-7-(4-chlorophenyl)-5,11-dioxo-3,4,5,10,11,11a-hexahydro-1H-2,4a,10-triaza-dibenzo[a,d]cycloheptene-2-carboxamide] | 20% | > 1000 nM |
| CC(C)(C)CC(=O)N1CCN2C(=O)c3cc(-c4ccc(Cl)c(F)c4)ccc3NC(=O)C2C1 (stereo not drawn) [Compound A94, 7-(4-Chloro-3-fluorophenyl)-2-(3,3-dimethylbutyryl)-1,3,4,11a-tetrahydro-2H,10H-2,4a,10-triaza-dibenzo[a,d]cycloheptene-5,11-dione] | -18% | > 1000 nM |
| O=C1Nc2ccc(-c3ccc(Cl)cc3)cc2C(=O)N2CCN(C(=O)OCc3ccccc3)CC12 (stereo not drawn) [Compound 40, Benzyl 7-(4-chlorophenyl)-5,11-dioxo-3,4,5,10,11,11a-hexahydro-1H-2,4a,10-triazadibenzo[a,d]cycloheptene-2-carboxylate] | 22% | > 1000 nM |
| O=C1Nc2ccc(-c3ccccc3)cc2C(=O)N2CCN(C(=O)C3CCCC3)C[C@@H]12 [Compound B6] | 85% | – |
| CC(C)[C@@H](O)C(=O)N1CCN2C(=O)c3cc(-c4ccc(Cl)cc4F)ccc3NC(=O)C2C1 (stereo partly drawn) [Compound A77, 7-(4-Chloro-2-fluorophenyl)-2-((R)-2-hydroxy-3-methylbutyryl)-1,3,4,11a-tetrahydro-2H,10H-2,4a,10-triazadibenzo[a,d]cycloheptene-5,11-dione] | 11% | > 1000 nM |
| CC(C)(C)CC(=O)N1CCN2C(=O)c3cc(-c4cc(F)ccc4F)ccc3NC(=O)C2C1 (stereo not drawn) [Compound A89, 7-(2,5-Difluorophenyl)-2-(3,3-dimethylbutyryl)-1,3,4,11a-tetrahydro-2H,10H-2,4a,10-triaza-dibenzo[a,d]cycloheptene-5,11-dione] | 4% | > 1000 nM |
| COC[C@H](N)C(=O)N1CCN2C(=O)c3cc(-c4ccc(Cl)cc4F)ccc3NC(=O)[C@H]2C1 [Compound A124, (R)-2-((S)-2-Amino-3-methoxypropionyl)-7-(4-chloro-2-fluorophenyl)-1,3,4,11a-tetrahydro-2H,10H-2,4a,10-triazadibenzo[a,d]cycloheptene-5,11-dione] | 39% | > 1000 nM |
| CC(C)(C)CC(=O)N1CCN2C(=O)c3cc(-c4ccc(F)cc4F)ccc3NC(=O)C2C1 (stereo not drawn) [Compound A91, 7-(2,4-Difluorophenyl)-2-(3,3-dimethylbutyryl)-1,3,4,11a-tetrahydro-2H,10H-2,4a,10-triaza-dibenzo[a,d]cycloheptene-5,11-dione] | -6% | > 1000 nM |
| O=C1Nc2ccc(-c3ccccc3)cc2C(=O)N2CCN(C(=O)C3CCCCC3)C[C@H]12 [Compound B13] | 53% | – |
| Nc1nc(C(=O)N2CCN3C(=O)c4cc(-c5ccc(Cl)cc5)ccc4NC(=O)C3C2)cs1 (stereo not drawn) [Compound A50, 2-(2-Aminothiazole-4-carbonyl)-7-(4-chlorophenyl)-1,3,4,11a-tetrahydro-2H,10H-2,4a,10-triaza-dibenzo[a,d]cycloheptene-5,11-dione] | 80% | – |
| CC(C)(C)CCN1CCN2C(=O)c3cc(-c4ccc(Cl)cc4F)ccc3NC(=O)C2C1 (stereo not drawn) [Compound A33] | 72% | > 1000 nM |
| CC(C)(C)CC(=O)N1CCN2C(=O)c3cc(-c4ccc(Cl)s4)ccc3NC(=O)C2C1 (stereo not drawn) [Compound A129, 7-(5-Chlorothiophen-2-yl)-2-(3,3-dimethylbutyryl)-1,3,4,11a-tetrahydro-2H,10H-2,4a,10-triaza-dibenzo[a,d]cycloheptene-5,11-dione] | 6% | > 1000 nM |

Continued, values first:

| remaining activity at 10 µM | IC50 | Structure (SMILES) |
| --- | --- | --- |
| -13% | 100 to 1000 nM | CC(C)(C)CC(=O)N1CCN2C(=O)c3cc(-c4ccc(Cl)c(Cl)c4)ccc3NC(=O)C2C1 (stereo not drawn) [Compound A104, 7-(3,4-Dichlorophenyl)-2-(3,3-dimethylbutyryl)-1,3,4,11a-tetrahydro-2H,10H-2,4a,10-triaza-dibenzo[a,d]cycloheptene-5,11-dione] |
| 10% | > 1000 nM | CC(C)(C)CC(=O)N1CCN2C(=O)c3cc(-c4ccc(Cl)cc4F)ccc3N(CCC3CCNCC3)C(=O)C2C1 (stereo not drawn) [Compound A146] |
| 30% | > 1000 nM | CN1CCN(C(=O)CN2C(=O)[C@@H]3CN(C(=O)CC(C)(C)C)CCN3C(=O)c3cc(-c4ccc(Cl)cc4F)ccc32)CC1 [Compound A162] |
| – | 100 to 1000 nM | CC(C)(C)[C@H](O)C(=O)N1CCN2C(=O)c3cc(-c4ccc(Cl)cc4)ccc3NC(=O)[C@H]2C1 [Compound A56, (R)-7-(4-Chlorophenyl)-2-((S)-2-hydroxy-3,3-di-methyl-1-oxobutyl)-1,3,4,11a-tetrahydro-2H,10H-2,4a,10-triazadibenzo[a,d]cycloheptene-5,11-dione] |
| 2% | 100 to 1000 nM | CC(C)(C)CC(=O)N1CCN2C(=O)c3cc(-c4ccc(Cl)cc4F)ccc3N(CCO)C(=O)[C@@H]2C1 [Compound A160] |
| 3% | > 1000 nM | O=C1Nc2ccc(-c3ccc(Cl)cc3)cc2C(=O)N2CCN(C(=O)C3CCCN3C(=O)Nc3ccc(Cl)cc3)CC12 (stereo not drawn) [Compound A111, N-(4-Chlorophenyl)-2-[7-(4-chlorophenyl)-5,11-dioxo-3,4,5,10,11,11a-hexahydro-1H-2,4a,10-triaza-dibenzo[a,d]cycloheptene-2-carbonyl]pyrrolidine-1-carboxamide] |
| 1% | 100 to 1000 nM | CC(C)(C)CC(=O)N1CCN2C(=O)c3cc(-c4ccc(Cl)cc4F)ccc3NC(=O)C2C1 (stereo not drawn) [Compound 10, 7-(4-chloro-2-fluorophenyl)-2-(3,3-dimethylbutyryl)-1,3,4,11a-tetrahydro-2H,10H-2,4a,10-triazadibenzo[a,d]cycloheptene-5,11-dione] |
| 19% | 100 to 1000 nM | Cn1cc(CCC(=O)N2CCN3C(=O)c4cc(-c5ccc(Cl)cc5F)ccc4NC(=O)[C@H]3C2)cn1 [Compound A97, (R)-7-(4-Chloro-2-fluorophenyl)-2-[3-(1-methyl-1H-pyrazol-4-yl)propionyl]-1,3,4,11a-tetrahydro-2H,10H-2,4a,10-triazadibenzo[a,d]cycloheptene-5,11-dione] |
| -16% | 100 to 1000 nM | Cc1ccc(-c2ccc3c(c2)C(=O)N2CCN(C(=O)CC(C)(C)C)CC2C(=O)N3)c(F)c1F (stereo not drawn) [Compound A82, 7-(2,3-Difluoro-4-methylphenyl)-2-(3,3-dimethyl-butyryl)-1,3,4,11a-tetrahydro-2H,10H-2,4a,10-triazadibenzo[a,d]cycloheptene-5,11-dione] |
| 3% | 100 to 1000 nM | CC(C)(C)CC(=O)N1CCN2C(=O)c3cc(-c4ccc(Cl)cc4F)ccc3N(CCN3CCOCC3)C(=O)C2C1 (stereo not drawn) [Compound A143] |
